Molar heat capacity data for eleven compounds are collected here from the NIST ThermoML archive (doi:10.1021/je050273f).

± gives the expanded uncertainty stated by the source.

The series in a line: molar heat capacity at saturation pressure. As to conditions: Liquid, Large sample (1 g) DSC.

As to `Cc1cccc(C)c1` [1,3-dimethylbenzene], the molar heat capacity by setting is: (332.2 K) 193.6 ± 3.9 J/K/mol; (342.1 K) 197.6 ± 4 J/K/mol; (354.9 K) 201.7 ± 4 J/K/mol; (361.8 K) 205.7 ± 4.1 J/K/mol; (371.6 K) 209.4 ± 4.2 J/K/mol; (381.5 K) 213.6 ± 4.3 J/K/mol. Further, the molar heat capacity reads like this: (391.4 K) 217.4 ± 4.3 J/K/mol; (401.3 K) 221.7 ± 4.4 J/K/mol.
Regarding `CC(C)(C)c1ccccc1` [(1,1-dimethylethyl)benzene], the molar heat capacity is reported as 259 ± 5.2 J/K/mol (332.2 K); 263.1 ± 5.3 J/K/mol (342.1 K); 268.3 ± 5.4 J/K/mol (354.9 K); 272.7 ± 5.5 J/K/mol (361.8 K); 278.4 ± 5.6 J/K/mol (371.6 K); 283 ± 5.7 J/K/mol (381.5 K). Besides, the molar heat capacity was determined as 288.8 ± 5.8 J/K/mol (391.4 K) and 293.5 ± 5.9 J/K/mol (401.3 K).
With `CCC(C)c1ccccc1` (stereo unspecified) [(1-methylpropyl)benzene], the molar heat capacity reads like this: (332.2 K) 258.5 ± 5.2 J/K/mol; (342.1 K) 262.6 ± 5.3 J/K/mol; (354.9 K) 267.9 ± 5.4 J/K/mol; (361.8 K) 272.5 ± 5.5 J/K/mol; (371.6 K) 277.5 ± 5.6 J/K/mol; (381.5 K) 282.4 ± 5.6 J/K/mol. The molar heat capacity reads like this: (391.4 K) 287.3 ± 5.7 J/K/mol; (401.3 K) 292.1 ± 5.8 J/K/mol.
As for `CC(C)Cc1ccccc1` [(2-methylpropyl)benzene], the molar heat capacity came to 259.1 ± 5.2 J/K/mol (332.2 K); 263.5 ± 5.3 J/K/mol (342.1 K); 268.8 ± 5.4 J/K/mol (354.9 K); 273.9 ± 5.5 J/K/mol (361.8 K); 278.6 ± 5.6 J/K/mol (371.6 K); 283 ± 5.7 J/K/mol (381.5 K). Further, the molar heat capacity is reported as 289.1 ± 5.8 J/K/mol (391.4 K) and 293.8 ± 5.9 J/K/mol (401.3 K).
Turning to `CCCCc1ccccc1` [butylbenzene], the molar heat capacity runs as follows: (332.2 K) 259.1 ± 5.2 J/K/mol; (342.1 K) 263 ± 5.3 J/K/mol; (354.9 K) 267.8 ± 5.4 J/K/mol; (361.8 K) 272.9 ± 5.5 J/K/mol; (371.6 K) 277.6 ± 5.6 J/K/mol; (381.5 K) 283.9 ± 5.7 J/K/mol. In addition, the molar heat capacity is 288 ± 5.8 J/K/mol (391.4 K) and 293.9 ± 5.9 J/K/mol (401.3 K).
For `CCc1ccccc1` [ethylbenzene], the molar heat capacity is, setting by setting: (332.2 K) 198.7 ± 4 J/K/mol; (342.1 K) 202.4 ± 4 J/K/mol; (354.9 K) 205.9 ± 4.1 J/K/mol; (361.8 K) 210.2 ± 4.2 J/K/mol; (371.6 K) 213.6 ± 4.3 J/K/mol; (381.5 K) 218 ± 4.4 J/K/mol. In addition, the molar heat capacity (391.4 K) is 221.7 ± 4.4 J/K/mol.
Take `CCCCCCCc1ccccc1` [heptylbenzene]: the molar heat capacity (332.2 K) came out at 353.6 ± 7.1 J/K/mol; the molar heat capacity (342.1 K) stood at 359.6 ± 7.2 J/K/mol; the molar heat capacity (354.9 K) is 364.9 ± 7.3 J/K/mol; the molar heat capacity (361.8 K) is 371.5 ± 7.4 J/K/mol; the molar heat capacity (371.6 K) is recorded as 377.2 ± 7.5 J/K/mol; the molar heat capacity (381.5 K) came to 384.3 ± 7.7 J/K/mol. Also, the molar heat capacity (391.4 K) worked out at 389.9 ± 7.8 J/K/mol and the molar heat capacity (401.3 K) came out at 396.5 ± 7.9 J/K/mol.
Consider `CCCCCCCCCCCCCCCCc1ccccc1` [hexadecylbenzene], for which the molar heat capacity runs as follows: (332.2 K) 640 ± 13 J/K/mol; (342.1 K) 651.3 ± 13 J/K/mol; (354.9 K) 662 ± 13 J/K/mol; (361.8 K) 671.9 ± 13 J/K/mol; (371.6 K) 683.3 ± 14 J/K/mol; (381.5 K) 695.3 ± 14 J/K/mol. Moreover, the molar heat capacity is, setting by setting: (391.4 K) 710 ± 14 J/K/mol; (401.3 K) 721.1 ± 14 J/K/mol.
As to `CCCCCCc1ccccc1` [hexylbenzene], the molar heat capacity by setting is: (332.2 K) 323.1 ± 6.5 J/K/mol; (342.1 K) 328.8 ± 6.6 J/K/mol; (354.9 K) 334.1 ± 6.7 J/K/mol; (361.8 K) 340.1 ± 6.8 J/K/mol; (371.6 K) 347.9 ± 7 J/K/mol; (381.5 K) 353.8 ± 7.1 J/K/mol. Further, the molar heat capacity by setting is: (391.4 K) 359.1 ± 7.2 J/K/mol; (401.3 K) 366.1 ± 7.3 J/K/mol.
Take `CC(C)c1ccccc1` [isopropylbenzene]: the molar heat capacity is 229.1 ± 4.6 J/K/mol (332.2 K); 234.2 ± 4.7 J/K/mol (342.1 K); 238.5 ± 4.8 J/K/mol (354.9 K); 242.5 ± 4.9 J/K/mol (361.8 K); 246.7 ± 4.9 J/K/mol (371.6 K); 251.1 ± 5 J/K/mol (381.5 K). Further, the molar heat capacity (391.4 K) is on record as 255.2 ± 5.1 J/K/mol and the molar heat capacity (401.3 K) is recorded as 259.5 ± 5.2 J/K/mol.
Take `CCCc1ccccc1` [propylbenzene]: the molar heat capacity reads like this: (332.2 K) 227.4 ± 4.5 J/K/mol; (342.1 K) 231.4 ± 4.6 J/K/mol; (354.9 K) 235.8 ± 4.7 J/K/mol; (361.8 K) 240.1 ± 4.8 J/K/mol; (371.6 K) 244.6 ± 4.9 J/K/mol; (381.5 K) 249.3 ± 5 J/K/mol. For the setting “391.4 K”, the molar heat capacity came to 252 ± 5 J/K/mol.
